Source: publication PMC5494507, “γ‐Secretase inhibitors in cancer clinical trials are pharmacologically and functionally distinct” (EMBO Molecular Medicine, 2017)

Tested on: rAPPC100sub and rNOTCH1‐4subs
Test: Cell-free γ-secretase assay, rAPPC100sub and rNOTCH1-4subs (IP-MS)
Assay type: biochemical, human
Settings: 25 nM
Description: cDNAs encoding NOTCH1, NOTCH2, NOTCH3, NOTCH4, CD44, and VEGFR1 γ‐secretase substrates were generated by gene synthesis conducted by Genscript (Piscataway, NJ, USA). The general design of the constructs was similar to a recombinant substrate (APP C100) that has been used by our group and others to assay Aβ production in in vitro γ‐secretase assays. All constructs contain an NH2‐terminal amyloid β peptide (Aβ) epitope tag followed by the juxtamembrane region (JMD) of the given substrate and a FLAG tag ([…]) at the COOH‐terminal. A schematic representation of the substrates is provided in Fig 1A, and sequences of the cDNAs and the proteins are provided in Appendix Fig S5. For clarity, these substrates are referred to as recombinant substrates (e.g., Notch1 is rNOTCH1sub). Substrate cDNAs were cloned into pET21 (Novagen, Billerica, MA, USA) for expression in bacterial cells.
pET21 plasmids containing the substrate cDNAs were transformed into BL21 E. coli. cells. Overexpression was induced with 0.5 mM isopropyl β‐D‐1‐thiogalactopyranoside (IPTG). […]
Immunoprecipitation and mass spectrometry of Aβ and Aβ‐like peptides in cell‐free assay or conditioned media were performed as previously described (Ran et al, 2014). […] Samples were analyzed using a Bruker Microflex LRF‐MALDI‐TOF mass spectrometer.

CN1C(=O)[C@@H](NC(=O)[C@H](CCC(F)(F)F)[C@H](CCC(F)(F)F)C(N)=O)N=C(c2ccccc2)c2ccccc21 [BMS‐906024]
cleavage of the rAPPC100sub and rNOTCH1‐4subs: completely blocked cleavage
